Test results from patent publication US20230146455A1, “TREATMENT OF INFLAMMATORY DISEASES WITH PEPTIDES AND PHARMACEUTICAL COMPOSITIONS” (Yuyu Pharma, Inc., priority 2020, published 2023).
Several values for one entry are separate records, joined by “and”; a condition that tells them apart may be missing. Identical values can stand only once. Where a SMILES comes first, the peptide text is derived from it. [ ]: non-standard residue; d: D form. Hyp = O=C(O)[C@@H]1C[C@@H](O)CN1

How the values were obtained:
[1] = PBMC cell counts (total, live, viability; trypan blue, Countess) with and without LPS and test articles (Example 9); type: cell-based, human; conditions: human
Protocol: (§1) Treatment Human PBMCs were pretreated with YY-101, YDE-011 and YDE-043 or reference compound; Xiidra® at various concentration (ranging from 1 nM to 100 uM) for 2 h before stimulation. An equal volume of 0.5% DMSO was used as a vehicle control. Then, the cells were treated with LPS at 5 ug/ml. The supernatants from treated cells were harvested at 24 h and placed in a 96 well for Luminex cytokine & chemokine profiling using a Luminex 200 multiplex assay (Luminex; R&D system, USA).
(§2) The main study arm with triplicate wells per group in a 24-well plate: • 1. Blank • 2. PBMC: 0.5% DMSO • 3. PBMC+LPS (5 ug/ml) • 4. PBMC+YY-101 100 uM • 5. PBMC+YY-101 10 uM • 6. PBMC+YY-101 1 uM • 7. PBMC+YY-101 0.1 uM • 8. PBMC+YY-101 0.01 uM • 9. PBMC+LPS (5 ug/ml)+Xiidra®100 uM • 10. PBMC+LPS (5 ug/ml)+Xiidra® 10 uM • 11. PBMC+LPS (5 ug/ml)+Xiidra® 1 uM • 12. PBMC+LPS (5 ug/ml)+Xiidra®0.1 uM • 13. PBMC+LPS (5 ug/ml)+Xiidra®0.01 uM • 14. PBMC+LPS (5 ug/ml)+Xiidra®0.001 uM • 15. PBMC+LPS (5 ug/ml)+YY-101 100 uM • 16. PBMC+LPS (5 ug/ml)+YY-101 10 uM • 17. PBMC+LPS (5 ug/ml)+YY-101 1 uM • 18. PBMC+LPS (5 ug/ml)+YY-101 0.1 uM • 19. PBMC+LPS (5 ug/ml)+YY-101 0.01 uM • 20. PBMC+LPS (5 ug/ml)+YY-101 0.001 uM • 21. PBMC+LPS (5 ug/ml)+YDE-011 100 uM • 22. PBMC+LPS (5 ug/ml)+YDE-011 10 uM • 23. PBMC+LPS (5 ug/ml)+YDE-011 1 uM • 24. PBMC+LPS (5 ug/ml)+YDE-011 0.1 uM • 25. PBMC+LPS (5 ug/ml)+YDE-011 0.01 uM • 26. PBMC+LPS (5 ug/ml)+YDE-011 0.001 uM • 27. PBMC+LPS (5 ug/ml)+YDE-043 100 uM • 28. PBMC+LPS (5 ug/ml)+YDE-043 10 uM • 29. PBMC+LPS (5 ug/ml)+YDE-043 1 uM • 30. PBMC+LPS (5 ug/ml)+YDE-043 0.1 uM • 31. PBMC+LPS (5 ug/ml)+YDE-043 0.01 uM • 32. PBMC+LPS (5 ug/ml)+YDE-043 0.001 uM
The number of PBMCs was measured after 24 hr of treatment. The culture both and trypan blue were diluted 1:1 and 10 ul was added to Countess cell counting chamber (Thermo fisher, USA). The number of PBMCs was measured using a Countess automated cell counter (Thermo fisher, USA).

[2] = system: IL-17A; test: Example 9 Luminex, LPS hPBMCs: IL-17A; type: cell-based, human
Protocol: as §1, §2
Multiplex assay was used to measure 30 cytokines and chemokines. The 1:2, 1:10 and 1:200 diluted cell supernatant and serial dilution of the standard were dispensed into a 96 well plate at 50 ul/well. Then, the pre-mixed cocktail of antibody-coated magnetic beads was dispensed at 50 ul/well and incubated at room temperature for 2 h in a horizontal orbital microplate shaker at 800±500 rpm. The beads were washed using a magnetic device to prevent loss. The biotin-antibody was dispensed in 50 ul of each well and incubated at room temperature for 1 h in a shaker at 800±500 rpm. After washing, streptavidin-PE was added at 50 ul/well and incubated at room temperature for 30 min in a shaker under the same conditions. Finally, after washing, wash buffer (100 ul/well) was added to the plate and incubated in a shaker for 2 min. The Luminex™ 200 setting were set according to the manufacturer's protocol. The data was calculated with a standard five-parameter logistic nonlinear regression analysis of the data (xPonent software 4.2, USA). The levels of cytokine/chemokine are normalized to the live cell counts (1×10^5 cells/mL) and presented as concentrations per mL (pg/mL or ng/mL).

[3] = PBMC + LPS(5 ug/ml) + test article 0.001 uM, Mean
[4] = PBMC + LPS(5 ug/ml) + test article 0.001 uM, single replicates (1st, 2nd, 3rd)
[5] = PBMC + LPS(5 ug/ml) + test article 0.01 uM, Mean
[6] = PBMC + LPS(5 ug/ml) + test article 0.01 uM, single replicates (1st, 2nd, 3rd)
[7] = PBMC + LPS(5 ug/ml) + test article 0.1 uM, Mean
[8] = PBMC + LPS(5 ug/ml) + test article 0.1 uM, single replicates (1st, 2nd, 3rd)
[9] = PBMC + LPS(5 ug/ml) + test article 1 uM, Mean
[10] = PBMC + LPS(5 ug/ml) + test article 1 uM, single replicates (1st, 2nd, 3rd)
[11] = PBMC + LPS(5 ug/ml) + test article 10 uM, Mean
[12] = PBMC + LPS(5 ug/ml) + test article 10 uM, single replicates (1st, 2nd, 3rd)
[13] = PBMC + LPS(5 ug/ml) + test article 100 uM, Mean
[14] = PBMC + LPS(5 ug/ml) + test article 100 uM, single replicates (1st, 2nd, 3rd)

Question: For `CC(C)C[C@H](NC(=O)CNC(=O)[C@H](CC(C)C)NC(=O)[C@H](CCC(N)=O)NC(=O)CNC(=O)[C@@H]1C[C@@H](O)CN1)C(=O)N[C@@H](C)C(=O)NCC(=O)N1CCC[C@H]1C(=O)N[C@@H](CCCCN)C(=O)O` [YDE-011] (H-[Hyp]GQLGLAGPK-OH), which viability at 24 h, 0.001 µM ([1]; PBMCs, PBMC + LPS(5 ug/ml) + compound 0.001 uM, 24 hr) is on record?
Answer: 85 ± 5.1%

Question: What about the viability at 24 h, 0.01 µM ([1]; PBMCs, PBMC + LPS(5 ug/ml) + compound 0.01 uM, 24 hr) of the same compound?
Answer: 81 ± 1.2%

Question: And the viability at 24 h, 0.1 µM ([1]; PBMCs, PBMC + LPS(5 ug/ml) + compound 0.1 uM, 24 hr)?
Answer: 82 ± 4%

Question: And the viability at 24 h, 1 µM ([1]; PBMCs, PBMC + LPS(5 ug/ml) + compound 1 uM, 24 hr)?
Answer: 79.7 ± 5.8%

Question: What about the viability at 24 h, 10 µM ([1]; PBMCs, PBMC + LPS(5 ug/ml) + compound 10 uM, 24 hr) of the same compound?
Answer: 88.3 ± 1.5%

Question: And the viability at 24 h, 100 µM ([1]; PBMCs, PBMC + LPS(5 ug/ml) + compound 100 uM, 24 hr)?
Answer: 74.3 ± 4.1%

Question: And the viability at 24 h, 0.01 µM ([1]; human PBMCs, PBMC + LPS(5 ug/ml), test article 0.01 uM, single replicates)?
Answer: 83%

Question: And the “Concentration, IL-17A” value [2, 3]?
Answer: 3.3 pg/mL

Question: And the “MFI, Bead name: IL-17A” value [2, 3]?
Answer: 1.8

Question: And the “conc/live cell, IL-17A” value [2, 3]?
Answer: 0.6 pg/10^5

Question: What about the “Concentration, IL-17A” value [2, 4] of the same compound?
Answer: 4.3 pg/ml and 2.7 pg/ml (2×)

Question: What about the “MFI, Bead name: IL-17A” value [2, 4] of the same compound?
Answer: 2.5 and 1.5 (2×)

Question: And the “conc/live cell, IL-17A” value [2, 4]?
Answer: 1.0 pg/10^5 and 0.5 pg/10^5 (2×)

Question: And the “Concentration, IL-17A” value [2, 5]?
Answer: 2.1 pg/mL

Question: And the “MFI, Bead name: IL-17A” value [2, 5]?
Answer: 1.2

Question: What about the “conc/live cell, IL-17A” value [2, 5] of the same compound?
Answer: 0.4 pg/10^5

Question: What about the “Concentration, IL-17A” value [2, 6] of the same compound?
Answer: 1.0 pg/ml (2×) and 4.3 pg/ml

Question: And the “MFI, Bead name: IL-17A” value [2, 6]?
Answer: 0.5 (2×) and 2.5

Question: And the “conc/live cell, IL-17A” value [2, 6]?
Answer: 0.2 pg/10^5 (2×) and 0.9 pg/10^5

Question: What about the “Concentration, IL-17A” value [2, 7] of the same compound?
Answer: 1.6 pg/mL

Question: And the “MFI, Bead name: IL-17A” value [2, 7]?
Answer: 0.8

Question: And the “conc/live cell, IL-17A” value [2, 7]?
Answer: 0.3 pg/10^5

Question: And the “Concentration, IL-17A” value [2, 8]?
Answer: 2.7 pg/ml and 1.0 pg/ml (2×)

Question: What about the “MFI, Bead name: IL-17A” value [2, 8] of the same compound?
Answer: 1.5 and 0.5 (2×)

Question: What about the “conc/live cell, IL-17A” value [2, 8] of the same compound?
Answer: 0.4 pg/10^5 and 0.2 pg/10^5 (2×)

Question: What about the “Concentration, IL-17A” value [2, 9] of the same compound?
Answer: 3.8 pg/mL

Question: What about the “MFI, Bead name: IL-17A” value [2, 9] of the same compound?
Answer: 2.2

Question: What about the “conc/live cell, IL-17A” value [2, 9] of the same compound?
Answer: 0.8 pg/10^5

Question: What about the “Concentration, IL-17A” value [2, 10] of the same compound?
Answer: 4.3 pg/ml (2×) and 2.7 pg/ml

Question: What about the “MFI, Bead name: IL-17A” value [2, 10] of the same compound?
Answer: 2.5 (2×) and 1.5

Question: And the “conc/live cell, IL-17A” value [2, 10]?
Answer: 0.8 pg/10^5 and 0.9 pg/10^5 and 0.6 pg/10^5

Question: And the “Concentration, IL-17A” value [2, 11]?
Answer: 2.7 pg/mL

Question: What about the “MFI, Bead name: IL-17A” value [2, 11] of the same compound?
Answer: 0.8

Question: And the “conc/live cell, IL-17A” value [2, 11]?
Answer: 0.3 pg/10^5

Question: And the “Concentration, IL-17A” value [2, 12]?
Answer: 2.7 pg/mL

Question: And the “MFI, Bead name: IL-17A” value [2, 12]?
Answer: 1.5 (2×) and −0.5

Question: And the “conc/live cell, IL-17A” value [2, 12]?
Answer: 0.5 pg/10^5 (2×) and 0.0 pg/10^5

Question: What about the “Concentration, IL-17A” value [2, 13] of the same compound?
Answer: 1.0 pg/mL

Question: And the “MFI, Bead name: IL-17A” value [2, 13]?
Answer: 0.2

Question: What about the “conc/live cell, IL-17A” value [2, 13] of the same compound?
Answer: 0.1 pg/10^5

Question: And the “Concentration, IL-17A” value [2, 14]?
Answer: 1.0 pg/mL

Question: And the “MFI, Bead name: IL-17A” value [2, 14]?
Answer: 0.5 (2×) and −0.5

Question: And the “conc/live cell, IL-17A” value [2, 14]?
Answer: 0.2 pg/10^5 (2×) and 0.0 pg/10^5
